Each structure is given as a SMILES string.

The test system of one assay is SKOV3 cells. Kind of assay: Wound-healing assay, SKOV3. As to conditions: 24 h and 48 h, concentration-dependent, vs control, 0.1% DMSO and siltuximab. The assay is classed as cell-based, human. Here is the method: (§1) A2780 and SKOV3 cells were cultured to 90% confluence in 6-well plates. After changing to a serum-free medium, the cell monolayer was scraped to artificially form homogeneous wound with uniform thickness. The drug treatment for each well was carried out in the following manner: siltuximab at 50 μM; butein at 10, 25, and 50 μM. The cells were imaged at 0, 24, and 48 h.

In assay [1] the test system is A2780 cells. Kind of assay: Cell viability by MTT assay, A2780. The assay is classed as cell-based. As to conditions: Homo sapiens, 48 h. How it is done: A2780 and SKOV3 cell lines were purchased from the European Collection of Cell Cultures (ECACC, London, UK) and Korean Cell Line Bank (KCLB, Seoul, Republic of Korea) respectively. Each cell line was seeded in a 96-well plate at an appropriate cell number (3000 cells/100 μL in each well). After 24 h, butein was added to the plates at each of the following concentrations, 0, 3.125, 6.25, 12.5, 25, and 50 μM, in triplicate in the presence of serum medium. After 48 h, 100 μL of […] (Sigma-Aldrich, St. Louis, MO, USA) solubilizing solution was added to each well and incubated for 4 h. The solution was then aspirated, and 100 μL of DMSO was added for cell lysis. The spectrophotometric absorbance was measured at 540 nm. Half of the maximum inhibitory concentration (IC50) was determined using GraphPad Prism software (version 7.0).

In assay [2] the test system is A2780 cells. Kind of assay: Wound-healing assay, A2780. The format is cell-based, human. As to conditions: 24 h and 48 h, concentration-dependent, vs control, 0.1% DMSO and siltuximab. Here is the method: as §1
A further assay deals with T1, gp130 (Homo sapiens, UniProt P40189).
T1 construct: purchased Sino Biological or ANRT
T1 sequence (P40189 23-918): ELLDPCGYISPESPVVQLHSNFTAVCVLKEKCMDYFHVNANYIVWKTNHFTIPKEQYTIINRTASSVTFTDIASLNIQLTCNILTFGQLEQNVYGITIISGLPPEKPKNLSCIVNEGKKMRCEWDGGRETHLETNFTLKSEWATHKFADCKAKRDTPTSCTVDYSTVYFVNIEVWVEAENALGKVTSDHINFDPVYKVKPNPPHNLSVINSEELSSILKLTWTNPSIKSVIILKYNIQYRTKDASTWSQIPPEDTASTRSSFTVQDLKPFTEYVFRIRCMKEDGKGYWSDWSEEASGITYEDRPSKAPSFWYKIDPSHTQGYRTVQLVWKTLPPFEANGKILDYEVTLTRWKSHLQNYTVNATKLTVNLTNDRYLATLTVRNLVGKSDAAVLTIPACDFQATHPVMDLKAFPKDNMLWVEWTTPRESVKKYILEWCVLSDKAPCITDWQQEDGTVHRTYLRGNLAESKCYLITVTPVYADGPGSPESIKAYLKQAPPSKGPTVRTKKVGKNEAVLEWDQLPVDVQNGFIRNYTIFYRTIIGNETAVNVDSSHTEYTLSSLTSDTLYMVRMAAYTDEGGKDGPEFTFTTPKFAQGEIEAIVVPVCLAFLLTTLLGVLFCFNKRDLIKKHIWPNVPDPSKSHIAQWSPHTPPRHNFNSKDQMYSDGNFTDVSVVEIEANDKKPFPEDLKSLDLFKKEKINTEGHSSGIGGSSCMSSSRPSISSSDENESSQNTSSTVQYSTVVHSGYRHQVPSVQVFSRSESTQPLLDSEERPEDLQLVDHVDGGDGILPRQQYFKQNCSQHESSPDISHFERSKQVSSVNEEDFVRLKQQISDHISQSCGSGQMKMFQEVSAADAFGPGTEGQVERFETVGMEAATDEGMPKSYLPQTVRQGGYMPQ
The assay can be described thus: Surface plasmon resonance, immobilized gp130. As to conditions: SPR, CM5 chip, steady-state KD. The format is binding. Here is the method: (§2) The surface plasmon resonance (SPR) assay was measured using the BIAcore T200 model (GE Healthcare, Chicago, IL, USA) with HBS-EP buffer (1×HBS-EP, GE Healthcare, Chicago, IL, USA) containing 5% dimethyl sulfoxide (DMSO; Sigma-Aldrich, St. Louis, MO, USA). The pH scouting for IL-6 (PeproTech, Rocky Hill, NJ, USA), IL-6Rα (PeproTech, Rocky Hill, NJ, USA), and gp130 (Sino Biological, Beijing, China, or ANRT, Daejeon, Korea) immobilization was performed in 10 mM acetate buffer at pH 4.5. IL-6, IL-6Rα, and gp130 were immobilized on a CM5 chip at 750, 1200, and 2000 response units (RU). Butein was injected into the IL-6, IL-6Rα and gp130-immobilized flow cell at concentrations of 10, 20, 30, 40, 50, 60, 70, 80, 90, and 100 μM with a 25 μL/min flow rate for 150 s and allowed to dissociate for 300 s. Steady-state KD was determined via the T-200 BIAevaluation software (GE Healthcare, Chicago, IL, USA).
In general terms: SPR reads the build-up and loss of mass on a sensor chip optically.

The target of the next assay is T2, IL-6Rα (Homo sapiens, UniProt P08887).
T2 construct: purchased PeproTech
T2 sequence (P08887 20-468): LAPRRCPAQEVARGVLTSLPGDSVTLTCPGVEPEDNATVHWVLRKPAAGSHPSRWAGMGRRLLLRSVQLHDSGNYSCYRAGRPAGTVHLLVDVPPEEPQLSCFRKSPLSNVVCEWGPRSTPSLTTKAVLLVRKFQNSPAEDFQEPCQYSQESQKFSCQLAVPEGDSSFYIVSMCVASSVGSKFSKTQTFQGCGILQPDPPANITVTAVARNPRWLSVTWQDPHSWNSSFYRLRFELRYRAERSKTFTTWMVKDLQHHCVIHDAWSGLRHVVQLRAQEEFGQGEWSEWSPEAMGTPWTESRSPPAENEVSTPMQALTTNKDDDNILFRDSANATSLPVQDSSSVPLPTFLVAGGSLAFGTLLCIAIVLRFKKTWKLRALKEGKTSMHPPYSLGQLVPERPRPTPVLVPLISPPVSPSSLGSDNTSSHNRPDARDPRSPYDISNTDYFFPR
Kind of assay: Surface plasmon resonance, immobilized IL-6Rα. The assay is classed as binding. As to conditions: SPR, CM5 chip, steady-state KD. How it is done: as §2

The subject of assay [3] is A2780 cells. Kind of assay: Annexin V apoptosis assay, A2780. The assay is classed as cell-based, human. As to conditions: dose-dependent, p < 0.005. How it is done:
A2780 and SKOV3 cell lines were treated with control (siltuximab 10 μM) and butein (5, 10, and 25 μM). After 6 h, the cells were fixed with 70% ethanol for cell cycle analysis and stained with propidium iodide (PI). Cell death was analyzed using the FITC Annexin V Apoptosis Detection kit with 7-AAD (Cat.no. 640922, BioLegend, San Diego, CA, USA). Cells were sorted using a FACS Canto II (BD Biosciences, Franklin Lakes, NJ, USA) and cell cycle and apoptosis were analyzed using BD FACS Diva software version 6. 2. Analysis (BD Biosciences, Franklin Lakes, NJ, USA) was performed in triplicate.

As for `O=C(/C=C/c1ccc(O)c(O)c1)c1ccc(O)cc1O` [butein], the “Cell migration, SKOV3” value with SKOV3 cells was “reduced”. For the same compound, 64.7 ± 6.27 µM corresponded to half-maximal inhibition with A2780 cells [1] (IC50). The “Cell migration, A2780” value in the assay on A2780 cells [2] is on record as “reduced”. Moreover, the dissociation constant Kd (as a rule, a measure of binding affinity in units of concentration) stood at 616 µM at gp130 and 435 µM at IL-6Rα. For the same compound, in the assay on A2780 cells [3], the “Total apoptosis, A2780” value is given as “significantly increase”.

These data come from article PMC10094418, “Butein Inhibits Cell Growth by Blocking the IL-6/IL-6Rα Interaction in Human Ovarian Cancer and by Regulation of the IL-6/STAT3/FoxO3a Pathway” (International Journal of Molecular Sciences, 2023).
